The subject of one assay is hMSCs. In words: Loss of stemness: STRO-1 immunostaining of hMSCs cultured with compounds in solution. Type of assay: cell-based, Human. Particulars: compound in cell culture media solution; for STRO-1 Expression (%) after 96 h: 400 ng/mL added every 24 h; for STRO-1 Expression (%) after 48 h: 400 ng/mL. An excerpt: The following starting materials and reagents were used: • Apatite ceramics (also called apatite or ceramic in the present invention) were synthetized as described in Mater Res. 2004; 7(4): 625-630. • Titanium was obtained from Goodfellow®. • Hydrogel (poly(acrylamide-co-acrylic acid) gel) was synthetized as described in Langmuir 2011; 27(22):13635-42. • PEEK was obtained from Goodfellow®. • PET (Poly(ethylene terephthtalate) was obtained from Goodfellow@. • Type-I collagen sponge was obtained from Sigma®. • Hexane was obtained from Sigma®. • 3-succinimidyl-3-maleimidopropionate (SMP) was obtained from Sigma®. • DMF was obtained from Sigma®. • PBS 1× was obtained from Gibco®. • 3-(ethoxydimethylsilyl)propylamine was obtained from Sigma®. • Ammonium persulfate was obtained from Biorad®. • N,N,N′,N′-tetramethylethylenediamine was obtained from Aldrich®. • Acrylamid was obtained from Merck®. • Acrylic acid was obtained from Merck®. • N,N-methylene-bis-acrylamide was obtained from Merck®. • NaOH was obtained from Aldrich®. • N,N,N′,N′-tetramethylethylenediamine was obtained from Aldrich®. • Dimethylaminopropyl-3-ethylcarbodiimide hydrochloride was obtained from Aldrich®. • N-hydroxysuccinimide was obtained from Aldrich®. • 2-(N-morpholino)-ethane sulfonic acid was obtained from Aldrich®. • MilliQ water: is water characterised in terms of resistivity (typically 18.2 MΩ·cm at 25° C.). • Low glucose Dulbecco's Modified Eagle Medium (DMEM) was obtained from Invitrogen® • Minimum Essential Medium Eagle without ascorbic acid (αMEM) was obtained from Invitrogen®. • All of the cell culture experiments were carried out without any serum in the medium for the first 8 hours of culture. • Osteoblast progenitors or precursor osteoblasts: MC3T3-E1 cells were obtained from ATCC®. These cells were cultured in Alpha-MEM medium supplemented with 10% fetal calf serum (FCS) and 1% penicillin/streptomycin. All cells were used at a low passage number (passage 7), were subconfluently cultured and were seeded at 10^4 cells/cm^2 for the purpose of the experiments. • Human bone marrow Mesenchymal Stem Cells (hMSCs) were obtained from Lonza®. These cells were cultured in Alpha-MEM supplemented with 10% (v/v) FBS and 1% penicillin/streptomycin and incubated in a humidified atmosphere containing 5% (v/v) CO2 at 37° C. All cells were used at a low passage number (passage 2 to 4), were subconfluently cultured and were seeded at 10^4 cells/cm^2 for the purpose of the experiments. • Human adipose Mesenchymal Stem Cells (haMSCs) were obtained from Lonza®. These cells were cultured in Alpha-MEM supplemented with 10% (v/v) FBS and 1% penicillin/streptomycin and incubated in a humidified atmosphere containing 5% (v/v) CO2 at 37° C. All cells were used at a low passage number (passage 3 to 4), were subconfluently cultured and were seeded at 10^4 cells/cm^2 for the purpose of the experiments. • Mouse Hair Follicle Stem Cells were isolated and cultured as described in Methods Mol Biol. 2010; 585:401-20. • Neuron cells are Neuronal Schwann Cells obtained from ATCC®. These cells were cultured in Dulbecco's Modified Eagle's Medium supplemented with 10% (v/v) FBS and 1% penicillin/streptomycin and incubated in a humidified atmosphere containing 5% (v/v) CO2 at 37° C. All cells were used at a low passage number (passage 6-8), were subconfluently cultured and were seeded at 10^4 cells/cm^2 for the purpose of the experiments. • Human umbilical-vein endothelial cells (HUVECs) were purchased from Promocell®. HUVECs were isolated and grown on gelatin coated culture flasks in a complete HUVEC culture medium (IMDM (Invitrogen, France) supplemented with 20% (v/v) fetal bovine serum (FBS) (PAA, France) and 0.4% (v/v) EC growth supplement/heparin kit (Promocell, France)). Cells were subcultured by using trypsin/EDTA (Invitrogen, France) and maintained in a humidified atmosphere containing 5% CO2 at 37° C. These cells were used at a passage number 3 to 5 for the purpose of the experiments. […]

In assay [1] the test system is Human Hematopoietic Stem Cells. In words: Differentiation of human hematopoietic stem cells: loss of stemness marker CD-34+ (immunostaining). Particulars: compound in cell media solution, 400 ng/mL, 48 hours. Format: cell-based.

No end group written: not given here.

Take “APTGGSATSMLYYDKGVVTYLRKHRGGVVKDKGVVTY (also: cyclic, ring type not given here) [SEQ ID NO: 717]”: in the assay with hMSCs, the “STRO-1 Expression (%) after 96 h” value is on record as 17% and the “STRO-1 Expression (%) after 48 h” value was 28%. As to “APTLLNAISMLYFNDKQQIILKKYRLLVVRNDKQQII (also: cyclic, ring type not given here) [SEQ ID NO: 716]”, in the assay on hMSCs, the “STRO-1 Expression (%) after 96 h” value came out at 20% and the “STRO-1 Expression (%) after 48 h” value turned out to be 30%. The matching figures for “APVAAKPLSMLYVDKGVVTYDHHKDAAVEEDEYDKVV (also: cyclic, ring type not given here) [SEQ ID NO: 722]”: 18% and 31%. For the substance “APVKMEPLPTVYYDDMGVPTEQLSNDMVEESGSLDDMGVPT (also: cyclic, ring type not given here) [SEQ ID NO: 746]”, the “CD34+ Expression (%)” value in assay [1] came to 37%. On to “ASASPSSAPVDLKPLSMLYVIGKTPKIDHHKDMIVEESKSIGKTPKID (also: cyclic, ring type not given here) [SEQ ID NO: 734]”, for which the “STRO-1 Expression (%) after 48 h” value with hMSCs is 33%. Same read-out and setting: to “ASASPSSVSQDLRSVKVAKVIGKTPKIKEVQVMIVKSSKIGKTPKID (also: cyclic, ring type not given here) [SEQ ID NO: 738]” belongs 31%.

Turning to “AVPKASSVPQKLEPLTILYYDSSNNVIEQLSNNMVKSIGKTPKID (also: cyclic, ring type not given here) [SEQ ID NO: 736]”, the “STRO-1 Expression (%) after 48 h” value with hMSCs is on record as 37%. Consider “EPSSSRVRLEPLTTLYYGGGGGGGEQLSNVVEEHSKDKGVVTY (also: cyclic, ring type not given here) [SEQ ID NO: 745]”, for which, in assay [1], the “CD34+ Expression (%)” value is recorded as 37%.

Turning to “EPSSVSQAAEPLPIVYYRIKPHOGQHEQLSNMIVKSSKSSDDMGVPT [SEQ ID NO: 747]”, in assay [1], the “CD34+ Expression (%)” value was 38%.

With “HVTKPTSVPTKLSPISILFIDDSSNVIYKQYENMVVESSGSHIGKTPKID (also: cyclic, ring type not given here) [SEQ ID NO: 733]”, the “STRO-1 Expression (%) after 48 h” value in the assay on hMSCs was determined as 23%. With “IPKASSAPVGQRPVQMRKIDKGVVTYKKATVSSVEESGSLDKGVVTY (also: cyclic, ring type not given here) [SEQ ID NO: 739]”, the “CD34+ Expression (%)” value in assay [1] is 35%.

In the case of “KASSSRVKMSNITVQ1MRIKPHOGQHIGEMSVVEEHASGSHDKGVVTY (KASSSRVKMSNITVQIMRIKPHQGQHIGEMSVVEEHASGSHDKGVVTY; not fully specified (residue 23); printed as KASSSRVKMSNITVQ1MRIKPHOGQHIGEMSVVEEHASGSHDKGVVTY; also: cyclic, ring type not given here) [SEQ ID NO: 743]”, the “CD34+ Expression (%)” value in assay [1] is listed as 42%.

Take “KASSVPQEERPVQMRKIGGGGGGGKKATVMIVRSSKSSDDMGVPT (also: cyclic, ring type not given here) [SEQ ID NO: 740]”: in assay [1], the “CD34+ Expression (%)” value came to 31%. As for “KIPKASSVPQELEPLPIVYYDENEKVVEQLSNDMVRSGSGSRDENEKV (also: cyclic, ring type not given here) [SEQ ID NO: 735]”, the “STRO-1 Expression (%) after 48 h” value in the assay with hMSCs came to 26%.

For the substance “NDEGLESVPTGQSPISILYIRIKPHQGQHYKQYELEEHSQSESRDENEKV (also: cyclic, ring type not given here) [SEQ ID NO: 732]”, in the assay with hMSCs, the “STRO-1 Expression (%) after 48 h” value is listed as 27%.

In the case of “RVPSTSSAPVKTSNITMQIMDNGRVLLLGEMSMIVEESGSLIGKTPKID (also: cyclic, ring type not given here) [SEQ ID NO: 737]”, the “STRO-1 Expression (%) after 48 h” value in the assay on hMSCs was found to be 28%. For the substance “SRVAARSVKMAKVGGGGGGGKEVQVAAEEHGGGGGG (also: cyclic, ring not given here) [SEQ ID NO: 726]”, in the assay on hMSCs, the “STRO-1 Expression (%) after 96 h” value is 21% and the “STRO-1 Expression (%) after 48 h” value is reported as 39%.

As to “SRVLLRPVQMRKIDKGVVTYKKATVLLEEHDKGVVTY (also: cyclic, ring not given here) [SEQ ID NO: 729]”, in the assay with hMSCs, the “STRO-1 Expression (%) after 96 h” value was 14% and the “STRO-1 Expression (%) after 48 h” value was determined as 37%.

For “TPTSSSPINTLYFDDMGVPTYGKIPSSVVDDEYDKVV (also: cyclic, ring not given here) [SEQ ID NO: 720]”, in the assay on hMSCs, the “STRO-1 Expression (%) after 96 h” value turned out to be 14% and the “STRO-1 Expression (%) after 48 h” value was 21%. Turning to “TQVAARPVQTRKIDDMGVPTKKATVAAEDHDKGVVTY (also: cyclic, ring not given here) [SEQ ID NO: 730]”, in the assay on hMSCs, the “STRO-1 Expression (%) after 96 h” value stood at 21% and the “STRO-1 Expression (%) after 48 h” value is listed as 36%.

Regarding “VPEAASSLSMLFFEIVRKKPIFLKVYPAATVEDKGVVTY (also: cyclic, ring not given here) [SEQ ID NO: 714]”, in the assay with hMSCs, the “STRO-1 Expression (%) after 96 h” value was found to be 18% and the “STRO-1 Expression (%) after 48 h” value is 28%.

Regarding “VPQAAEPLPMLYYDKGVVTYEQLSNAAVRSDKGVVTY (also: cyclic, ring not given here) [SEQ ID NO: 723]”, in the assay with hMSCs, the “STRO-1 Expression (%) after 96 h” value worked out at 20% and the “STRO-1 Expression (%) after 48 h” value is recorded as 34%. The matching figures for “VPQQQEPLTTLYYDEYDKVVEQLSNQQVKSNDKQQII (also: cyclic, ring not given here) [SEQ ID NO: 724]”: 16% and 29%. As to “VPQRLEPLTILYYDAANNVVEQLSNDMVKSDENEKV (also: cyclic, ring not given here) [SEQ ID NO: 731]”, the “STRO-1 Expression (%) after 48 h” value in the assay on hMSCs stood at 31%. With “VPTAAEPISMLYLDEYDKVVKFKYEAAAVSNDKQQII (also: cyclic, ring not given here) [SEQ ID NO: 719]”, in the assay on hMSCs, the “STRO-1 Expression (%) after 96 h” value was determined as 16% and the “STRO-1 Expression (%) after 48 h” value is recorded as 26%.

Turning to “VPTAASAISILYLDAANNVVLKNYQAAVVEDKGVVTY (also: cyclic, ring not given here) [SEQ ID NO: 713]”, in the assay on hMSCs, the “STRO-1 Expression (%) after 96 h” value was 23% and the “STRO-1 Expression (%) after 48 h” value amounted to 29%. On to “VPTDDSATSTLYYDKGVVTYLRKHRDDEHSDKGVVTY (also: cyclic, ring not given here) [SEQ ID NO: 727]”, for which, in the assay on hMSCs, the “STRO-1 Expression (%) after 96 h” value is listed as 13% and the “STRO-1 Expression (%) after 48 h” value was 26%. The matching figures for “VPTGGEPLTTLYYNDKQQIIEQLSNGGEHSDDMGVPT (also: cyclic, ring not given here) [SEQ ID NO: 728]”: 17% and 32%. For “VPTMMSNITTQIMRIKPHQGQHIGEMSMMQHNDEYDKVV (also: cyclic, ring not given here) [SEQ ID NO: 725]”, in the assay with hMSCs, the “STRO-1 Expression (%) after 96 h” value is recorded as 20% and the “STRO-1 Expression (%) after 48 h” value was determined as 35%. Take “VPTSSSPISTLYIDKGVVTYLKYHYSSVAEDEYDKVV (also: cyclic, ring not given here) [SEQ ID NO: 718]”: in the assay with hMSCs, the “STRO-1 Expression (%) after 96 h” value is listed as 19% and the “STRO-1 Expression (%) after 48 h” value is reported as 26%.

For “VPTVVSAISTLYLRIKPHQGQHLKNYQVVVVENDKQQII (also: cyclic, ring not given here) [SEQ ID NO: 715]”, in the assay on hMSCs, the “STRO-1 Expression (%) after 96 h” value amounted to 24% and the “STRO-1 Expression (%) after 48 h” value is on record as 31%.

As to “VPTVVSPISMLYIDDMGVPTYKQYEVVVVEDDMGVPT (also: cyclic, ring not given here) [SEQ ID NO: 721]”, in the assay on hMSCs, the “STRO-1 Expression (%) after 96 h” value is listed as 16% and the “STRO-1 Expression (%) after 48 h” value is reported as 29%.

(Values after US20180305408A1, “COMPOUNDS FOR INDUCING TISSUE FORMATION AND USES THEREOF” (HISTIDE AG, priority 2015, published 2018).)
